# Measured values: ChEMBL document CHEMBL1138892, “Synthesis of Hsp90 dimerization modulators” (Bioorg Med Chem Lett, 2006)
# Target: Heat shock protein HSP90 (Homo sapiens, UniProt P07900+P08238)
# Description: Displacement of GM-BODIPY from Hsp90
row,EC50,Compound
1,345 nM,COC1=C2C[C@@H](C)C[C@H](OC)[C@H](O)[C@@H](C)/C=C(\C)[C@H](OC(N)=O)[C@@H](OC)/C=C\C=C(/C)C(=O)NC(=C(NC/C=C\CNC3=C4NC(=O)/C(C)=C/C=C\[C@H](OC)[C@@H](OC(N)=O)/C(C)=C/[C@H](C)[C@@H](O)[C@@H](OC)C[C@H](C)CC(=C(OC)C3=O)C4=O)C1=O)C2=O
2,45 nM,COC1=C2C[C@@H](C)C[C@H](OC)[C@H](O)[C@@H](C)/C=C(\C)[C@H](OC(N)=O)[C@@H](OC)/C=C\C=C(/C)C(=O)NC(=C(NC/C=C/CNC3=C4NC(=O)/C(C)=C/C=C\[C@H](OC)[C@@H](OC(N)=O)/C(C)=C/[C@H](C)[C@@H](O)[C@@H](OC)C[C@H](C)CC(=C(OC)C3=O)C4=O)C1=O)C2=O
3,465 nM,COC1=C2C[C@@H](C)C[C@H](OC)[C@H](O)[C@@H](C)/C=C(\C)[C@H](OC(N)=O)[C@@H](OC)/C=C\C=C(/C)C(=O)NC(=C(NCCCCCCCCCNC3=C4NC(=O)/C(C)=C/C=C\[C@H](OC)[C@@H](OC(N)=O)/C(C)=C/[C@H](C)[C@@H](O)[C@@H](OC)C[C@H](C)CC(=C(OC)C3=O)C4=O)C1=O)C2=O
4,91 nM,COC1=C2C[C@@H](C)C[C@H](OC)[C@H](O)[C@@H](C)/C=C(\C)[C@H](OC(N)=O)[C@@H](OC)/C=C\C=C(/C)C(=O)NC(=C(NCCCCNC3=C4NC(=O)/C(C)=C/C=C\[C@H](OC)[C@@H](OC(N)=O)/C(C)=C/[C@H](C)[C@@H](O)[C@@H](OC)C[C@H](C)CC(=C(OC)C3=O)C4=O)C1=O)C2=O
